Target: T1, PH20 hyaluronidase (bovine testicular hyaluronidase, BTH/PH20) (Bos taurus, UniProt Q2YDK3)
T1 sequence (Q2YDK3 36-553): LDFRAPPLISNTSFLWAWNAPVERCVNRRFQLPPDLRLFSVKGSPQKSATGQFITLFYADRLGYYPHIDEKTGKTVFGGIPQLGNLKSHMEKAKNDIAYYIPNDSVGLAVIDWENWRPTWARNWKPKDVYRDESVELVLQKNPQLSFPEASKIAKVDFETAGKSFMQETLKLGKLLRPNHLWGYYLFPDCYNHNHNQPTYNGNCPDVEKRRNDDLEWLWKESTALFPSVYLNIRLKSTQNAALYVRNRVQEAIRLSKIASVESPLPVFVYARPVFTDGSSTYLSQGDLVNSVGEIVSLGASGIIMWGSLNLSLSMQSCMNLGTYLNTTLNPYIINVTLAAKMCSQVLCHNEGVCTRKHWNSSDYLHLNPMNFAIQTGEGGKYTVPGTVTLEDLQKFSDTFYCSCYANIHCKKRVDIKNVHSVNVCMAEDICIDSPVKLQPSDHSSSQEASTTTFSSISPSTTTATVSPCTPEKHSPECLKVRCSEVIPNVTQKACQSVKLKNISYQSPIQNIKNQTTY
Assay type: biochemical

IC50: ~33 µM
SMILES: CCCCCCCCCCCCCCCC(=O)OC[C@H](O)[C@H]1OC(=O)C(O)=C1O [VCPAL, 6-O-Palmitoyl-L-ascorbic acid]

From publication PMC3608752 (Annals of neurology, 2013)
